The values below come from ChEMBL document CHEMBL3507680, “University of Dundee, Gates Library screen for HepG2 cell viability”.

The data set can be described thus: Human HepG2 cell viability assay in 384 well format. Format: toxicity, cell-based. The arrangement: dose 125 nL, time 70.5 hour; concentration not given beside the values. The note with it: HepG2 cells, read-out: Inhibition.
Regarding `CCn1cc(NC(=O)C(C)n2ncc(Cl)c2C)c(C(=O)OC)n1` (centres undefined), the cytotoxicity at 70.5 h was -3.71%.
`Cc1ccc(N2CC3(COCCN(Cc4cnn(C)c4)C3)OCC2=O)s1` (centres undefined): the cytotoxicity at 70.5 h was found to be 0.295%.
The figure for `O=C(NCC[S+]([O-])c1ccccc1)c1ccc2[nH]c(=O)[nH]c2c1` (centres undefined) is -6.4%; for `CCCOc1cc(Cl)c(CN2CCNC(C(=O)NC3CC3)C2)cc1OC` (centres undefined) it is -10.6%; for `O=C(c1ccco1)N1C[C@@H]2[C@@H](C1)OCC(=O)N2Cc1cccnc1` it is 7.81%.
The figure for `O=C(O)c1ccnc(-c2ccnc(NCCc3ccc(F)cc3)n2)c1` is -5.83%; for `O=C(NCCNS(=O)(=O)c1ccc(C(F)(F)F)cc1)c1ccoc1` it is -6.84%; for `CN(C)C[C@H]1C[C@@H]2CN(C(=O)c3ccco3)C[C@@H]2O1` it is -2.65%.
The figure for `CCCNC(=O)C[C@@H]1CCN(C(=O)c2cccnc2)C[C@@H]1CC` is 12.5%; for `Fc1ccc(-c2cnc(CN3CCn4c(nnc4C4CC4)C3)o2)cc1` it is -9.29%; for `Cc1cccc(C(C(=O)N(C)Cc2cc(C)no2)N(C)C)c1` (centres undefined) it is -7.53%.
As for `CSCc1noc(-c2ccc(C)c(N3CCNC3=O)c2)n1`, the cytotoxicity at 70.5 h was -9.43%.
For `COCC1CCCCN1C(=O)c1cc(Cn2ccc3ccccc32)[nH]n1` (centres undefined), the cytotoxicity at 70.5 h was -2.47%.
The result for `CCOCC1CN(CC2CC2)Cc2nn(C)cc21` (centres undefined) reads -4.39%; that for `CNS(=O)(=O)CC(=O)N(Cc1ccccc1)c1ccc(C)cc1`, -5.84%.
As to `CN(C)C(C(=O)N1CCSCC1)c1ccccc1F` (centres undefined), the cytotoxicity at 70.5 h was -5.06%.
The result for `CCOc1cccc2c1OCC(C(=O)NS(=O)(=O)c1ccc(Cl)cc1)=C2` reads 21.1%; that for `Cn1ncc2c(=O)[nH]c(CN(Cc3cccc(F)c3)C3CC3)nc21`, 1.56%.
As for `COC(=O)c1cccc(NS(=O)(=O)c2cnc(NC(C)=O)s2)c1`, the cytotoxicity at 70.5 h is -1.8%.
The figure for `Cc1ccsc1[C@@H]1CCN(C(=O)c2ccc(-c3cc[nH]n3)cc2)C[C@H]1O` is -10.8%; for `CC(C)N1CCC2(CCCN(Cc3ccc(F)cc3)C2=O)C1` (centres undefined) it is 27.4%; for `CCC(=O)N1CCCC1c1nccnc1Nc1ncccn1` (centres undefined) it is -15%.
On to `CN(C(=O)OC(C)(C)C)C1CCN(C(=O)c2ccc(Cl)o2)C1` (centres undefined), for which the cytotoxicity at 70.5 h was -3.64%.
The result for `COc1ccc2c(c1)c(-c1nc(C)ncc1CN)cn2C` reads 13.5%; that for `Cc1nn(C)c(C)c1-c1ccc(=O)n(C(C)C(=O)NC2CCCC2)n1` (centres undefined), -5.55%; that for `CN(C)CCn1cc(NC(=O)NC(C)(C)c2nccs2)cn1`, -3.3%.
Turning to `c1ccc(COC[C@H]2CCC[C@@]23CNCCO3)nc1`, the cytotoxicity at 70.5 h stood at 15.4%.
With `CC1(C)CCC(CC(=O)O)c2ccccc21` (centres undefined), the cytotoxicity at 70.5 h was -3.28%.
The result for `CC(C)c1nc(CN2CCOC(Cn3cncn3)C2)cs1` (centres undefined) reads -3.19%; that for `CN1CCCN(C[C@@H]2CN(C(=O)CCC3CCCC3)C[C@@H]2CO)CC1`, -7.86%.
The result for `COc1ccc(C(C)NC(=O)NCCNc2ccccn2)c(OC)c1` (centres undefined) reads 27.8%; that for `c1ccc(OCc2noc(CN3CCC(N4CCSCC4)CC3)n2)cc1`, -5.9%.
The figure for `CCCC(=O)NS(=O)(=O)c1ccc(C#N)c(C(F)(F)F)c1` is 1.39%.
Turning to `Cc1ccc(N2CCC(NC(C)c3cccs3)CC2)nc1` (centres undefined), the cytotoxicity at 70.5 h was -2.5%.
The figure for `Cc1cc(F)ccc1N1CCCC(NC2CCSCC2)C1=O` (centres undefined) is -2.24%; for `Cc1cnc(N2CCOCC3(CCN(c4ccccn4)C3)C2)nc1` (centres undefined) it is -9.64%.
The figure for `CC(=O)c1ccc(S(=O)(=O)Nc2cnn(C3CCOCC3)c2)cc1` is 6.82%.
The result for `O=C(NCCNc1ncccn1)C1CC(=O)N(CC(F)(F)F)C1` (centres undefined) reads -14.3%; that for `Cc1noc(CCCC(=O)NCC(c2ccco2)N2CCCC2)n1` (centres undefined), -14.9%; that for `CC(C)C(NC(=O)c1ccc(=O)[nH]c1)c1nnc2n1CCNCC2` (centres undefined), -6.19%.
For the compound `COc1ccc(OCCc2cc(C3CNCCO3)nn2C)cc1` (centres undefined), the cytotoxicity at 70.5 h is 12.2%.
In the case of `CCC(CC)NC(=O)Cn1nc(C)nc1-c1ccccc1`, the cytotoxicity at 70.5 h is -6.22%.
Take `O=C(CSc1ccccn1)N1C[C@H]2CC[C@@H]1CN(Cc1cscn1)C2`: the cytotoxicity at 70.5 h was -8.62%.
Regarding `CC(=O)N1N=C(c2cccs2)OC1C(=O)NCc1ccc(C)o1` (centres undefined), the cytotoxicity at 70.5 h was -1.09%.
The result for `C[C@H]1C[C@H]2CN(C(=O)C3=CCCC3)CC[C@H]2O1` reads -9.81%.
As to `Cc1cccc(CN2Cc3[nH]nc(COCCO)c3C2)n1`, the cytotoxicity at 70.5 h was -0.969%.
With `Cc1cccc(-n2nc(CC(C)C)nc2CCCC(N)=O)c1`, the cytotoxicity at 70.5 h was -6.23%.
The result for `Cc1ocnc1C(=O)N(C)[C@@H]1CC[C@@H](Oc2ccccc2)[C@@H]1O` reads -5.13%; that for `Cc1ccc(NC2CCN(C(=O)c3cccc4ncccc34)CC2)nn1`, 1.63%; that for `O=C(O)c1ncccc1N1CCCCC1`, -14.8%.
`Clc1ccccc1CN1CCc2nc(C3CCCCN3)ncc2C1` (centres undefined): the cytotoxicity at 70.5 h was -18.6%.
The figure for `CC(Cn1ccnc1)NC(=O)N1CCN(Cc2ccsc2)CC1` (centres undefined) is -2.59%; for `Cc1ncc2c(n1)CN(Cc1nnc(-c3ccccc3)o1)CC2` it is -7.67%; for `CN(CC(=O)N1CCN(c2ccccn2)CC1)c1ccc(Cl)cn1` it is -17.2%.
The figure for `O=C1CCCCCN1Cc1nc(C2(c3ccc(F)cc3)CCOC2)no1` (centres undefined) is 18.4%; for `Cc1ccc(C(=O)NCC(O)c2ccc(F)c(F)c2)c(=O)[nH]1` (centres undefined) it is -10.6%.
The result for `COc1cc2nc(NCc3ccc(C)nc3)nc(N)c2cc1OC` reads -5.25%.
For the compound `c1ccc(N2CCCC3(CCN(Cc4cccs4)C3)C2)nc1` (centres undefined), the cytotoxicity at 70.5 h came out at 33.5%.
The figure for `COc1ccc(-c2csc(N)c2C#N)cc1OC` is -13%; for `COc1ccc(CNC(C)c2cccc(Cl)c2)c(OC)c1OC` (centres undefined) it is -0.149%.
The figure for `Cc1ccsc1CN1CC[C@H]2OCC[C@@]2(C(=O)N2CCCO2)C1` is 22.9%.
The result for `CCCc1noc(C2CCN(S(=O)(=O)c3cccs3)CC2)n1` reads -2.96%.
On to `Cn1cc(CN2CCCC(c3nccnc3-c3cccc(F)c3)C2)cn1` (centres undefined), for which the cytotoxicity at 70.5 h was found to be 16.1%.
As to `COC(=O)N1CCC(NC(=O)Cn2cc(C)c3ccccc32)CC1`, the cytotoxicity at 70.5 h was -7.09%.
The figure for `FC(F)(F)C1CN(Cc2cccc(OCc3ccccn3)c2)CCO1` (centres undefined) is 8.84%.
In the case of `Cc1ccc(CC(=O)N2CCn3cc(Cn4cncn4)nc3C2)cc1`, the cytotoxicity at 70.5 h was -7.66%.
The figure for `CC(C)N1CCOC(CC(=O)N2CCCN(Cc3cccs3)CC2)C1` (centres undefined) is -11.6%; for `CNC(=O)c1cnc(/C=C/c2cc(OC)c3c(c2)OCCO3)s1` it is -6.59%; for `CN(CC1CCN(CCO)CC1)CC(O)c1ccc(F)cc1F` (centres undefined) it is -3.94%.
For the compound `COc1ncccc1NC(=O)C1CCN(S(C)(=O)=O)CC1`, the cytotoxicity at 70.5 h is -9.19%.
The figure for `CCOc1cc(CNC(=O)NCc2nc(C)c(C)s2)ccn1` is -5.57%; for `CN1N=C(C(=O)N(Cc2ccco2)C2CC2)CCC1=O` it is -9.82%.
As for `CN(Cc1cnn(C)c1)C(=O)NC1CCCC1`, the cytotoxicity at 70.5 h was -7.1%.
As to `CCN1CCN(C(=O)CCC2CCN(C(C)CSC)CC2)CC1` (centres undefined), the cytotoxicity at 70.5 h was 3.5%.
The figure for `CC(C)C(=O)N1CCC(c2nc3ccccn3c2NC(C)(C)C)CC1` is -10.5%.
The figure for `CCC(=O)c1ccccc1NN1c2ccccc2C(=O)C1(C)OC` (centres undefined) is 4.64%; for `COCCn1ccc(=O)c(OCC(=O)Nc2ccc(OC)c(Cl)c2)c1C` it is -5.11%; for `O=C(NCCNc1cnccn1)N1CC=C(c2ccccc2)CC1` it is -8.49%.
The result for `O=C(CSC1CCc2ccccc2NC1=O)NCCc1ccco1` (centres undefined) reads 7.74%; that for `CCOc1ccc(Br)cc1C1CCCCN1` (centres undefined), -12.6%; that for `CCCn1ncc2c(C(=O)Nc3cnn(CC)c3C)cc(C3CC3)nc21`, 5.37%.
As for `Cc1cnccc1CN(C)C(=O)C(C)(C)NC(=O)c1cccs1`, the cytotoxicity at 70.5 h amounted to 0.902%.
The figure for `Cc1ccc(NCCCNC(=O)C2CC3(CCNCC3)CN2C)nc1` (centres undefined) is -10.5%; for `CCOc1ccc(C(=O)N(Cc2cnn(C)c2)C(C)C)cc1` it is -1.86%.
As to `CC(C)(C)c1nc(CN(CCO)Cc2cc(Br)ccc2F)no1`, the cytotoxicity at 70.5 h is -3.27%.
The result for `COc1ccc(OC)c(CN2CCC(c3cc(O)nc(C)n3)C2)c1` (centres undefined) reads 22.5%; that for `CSc1cccc(NC(=O)N2CCCC(CNC(=O)c3ccco3)C2)c1` (centres undefined), -8.32%.
The figure for `Cc1nnsc1CNC(=O)c1ccc2c(c1)nc(N1CCOCC1)n2C` is -12.9%; for `O=C(NCCCn1ccnc1)Nc1ccn(CCc2ccccn2)n1` it is -5.67%.
The figure for `CC(=O)N1CCC(N2CCOC[C@H]2c2nc(-c3ccncc3)c[nH]2)CC1` is -0.136%.
Regarding `O=C(Nc1cccc(CNCc2cccs2)c1)C1CC1`, the cytotoxicity at 70.5 h was -8.51%.
`CC(C)NC(=O)c1nc(Cn2c(C(F)F)nc3ccccc32)no1`: the cytotoxicity at 70.5 h is -15.2%.
The figure for `Cc1ccc(-c2cc(CNC(=O)N3CCC(N(C)C)CC3)on2)cc1` is 4.4%.
For the compound `CCSCCC(=O)Nc1ncn(CC(=O)NCc2ccccc2)n1`, the cytotoxicity at 70.5 h is -7.93%.
For the compound `Cc1nc(C2CCCN2CC(=O)Nc2cc(C(C)(C)C)nn2C)no1` (centres undefined), the cytotoxicity at 70.5 h was -6.05%.
The figure for `CN(C)S(=O)(=O)N1C[C@H]2CCC[C@@]2(COCc2ccccn2)C1` is 13.2%; for `Cc1cc(CN2C[C@H]3CCC[C@@]3(COCC3CCOCC3)C2)no1` it is 0.596%.
The result for `O=C(Nc1cccc2ccccc12)N1CCC(N2CCSCC2)CC1` reads -0.0142%; that for `COCc1nnc(C(=O)N2CCCC(O)C2)o1` (centres undefined), -1.1%.
